This note sets out measurements from patent US20250230155A1 (Vanderbilt University, priority 2021, published 2025).

The target of this assay is T1, human mAChR M4 (Homo sapiens, UniProt P08173).
T1 construct: expressed in transfected cells
T1 sequence (P08173 1-479): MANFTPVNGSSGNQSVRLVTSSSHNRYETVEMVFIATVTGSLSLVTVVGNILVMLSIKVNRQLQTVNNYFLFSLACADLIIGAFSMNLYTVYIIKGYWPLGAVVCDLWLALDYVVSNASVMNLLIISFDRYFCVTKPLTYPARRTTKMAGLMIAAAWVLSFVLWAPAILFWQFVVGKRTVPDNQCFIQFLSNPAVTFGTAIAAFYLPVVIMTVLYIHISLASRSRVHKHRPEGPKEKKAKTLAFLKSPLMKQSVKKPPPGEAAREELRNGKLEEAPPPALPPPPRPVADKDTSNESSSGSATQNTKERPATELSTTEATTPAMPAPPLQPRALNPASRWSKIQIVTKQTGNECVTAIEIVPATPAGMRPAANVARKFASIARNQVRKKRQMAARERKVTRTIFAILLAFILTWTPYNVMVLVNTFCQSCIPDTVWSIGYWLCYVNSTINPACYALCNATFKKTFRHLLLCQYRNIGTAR
Description: mAChR M4 cell-based functional assay (calcium mobilization, CHO-K1 hM4-Gqi5 cells). To be noted: for Emax at 30 µM: CHO-K1, % ACh maximum at 30 μM, human M4; for EC50: positive allosteric modulator activity, increase in the EC20 acetylcholine response, CHO-K1 hM4-Gqi5 cells, read-out: Human M4 EC50; for Emax: CHO-K1. Put shortly:
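Fluorescent calcium read-out (Fluo-4 AM, FDSS, 1 Hz) in hM4-Gqi5 CHO-K1 cells, 11-point 1:3 compound series. Agonism scored on compound addition, PAM activity as increase of the 144 s EC20 acetylcholine response, antagonism as decrease of the 230 s EC80 response; four-parameter logistic fits give EC50 and Emax.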

As to `O=C(NCc1cncs1)c1ccc(N2CCc3ncc(C(F)(F)F)cc3C2)nn1` [Example 510, N-(thiazol-5-ylmethyl)-6-(3-(trifluoromethyl)-7,8-dihydro-1,6-naphthyridin-6(5H)-yl)pyridazine-3-carboxamide], the Emax at 30 µM was 81% and the concentration giving a half-maximal response (EC50) is 855 nM.
Taken in the same sequence, the figures for `Cc1cc(C(=O)N2CCC2C)nnc1N1CCc2ncc(N3CCCn4nccc43)cc2C1` (stereo not drawn) [Example 550, (6-(3-(6,7-dihydropyrazolo[1,5-a]pyrimidin-4(5H)-yl)-7,8-dihydro-1,6-naphthyridin-6(5H)-yl)-5-methylpyridazin-3-yl)(2-methylazetidin-1-yl)methanone] were 111% and 86 nM.
Taken in the same sequence, the figures for `Cc1cc(C(=O)NCc2ccc3c(c2)COC3)cnc1N1CCc2ncccc2C1` [compound 153, N-(1,3-dihydroisobenzofuran-5-ylmethyl)-6-(7,8-dihydro-5H-1,6-naphthyridin-6-yl)-5-methyl-pyridine-3-carboxamide] were 68% and 3170 nM.
Taken in the same sequence, the figures for `Cc1cc(-c2cnc3c(c2)CN(c2nc(C)nc(Cl)c2C)CC3)ccn1` [compound 93, 6-(6-chloro-2,5-dimethyl-pyrimidin-4-yl)-3-(2-methyl-4-pyridyl)-7,8-dihydro-5H-1,6-naphthyridine] were 95% and 123 nM.
Take `Cc1cc(C(=O)NCc2nc3ccccc3s2)cnc1N1CCc2ncc(-c3cn(C)nc3C)cc2C1` [Example 453, N-(benzo[d]thiazol-2-ylmethyl)-6-(3-(1,3-dimethyl-1H-pyrazol-4-yl)-7,8-dihydro-1,6-naphthyridin-6(5H)-yl)-5-methylnicotinamide]: the maximum response (Emax) at 30 µM turned out to be 92% and the 50% effective concentration (EC50) came out at 828 nM.
The matching figures for `Cc1cc(C#N)nnc1N1CCc2ncc(N3CCCn4nc(C(F)(F)F)cc43)cc2C1` [Example 413, 5-methyl-6-(3-(2-(trifluoromethyl)-6,7-dihydropyrazolo[1,5-a]pyrimidin-4(5H)-yl)-7,8-dihydro-1,6-naphthyridin-6(5H)-yl)pyridazine-3-carbonitrile]: 102% and 257 nM.
The matching figures for `Cc1cc(C(=O)N2CCCn3nccc32)nnc1N1CCc2ncc(C(F)(F)F)cc2C1` [Example 503, (6,7-dihydropyrazolo[1,5-a]pyrimidin-4(5H)-yl)(5-methyl-6-(3-(trifluoromethyl)-7,8-dihydro-1,6-naphthyridin-6(5H)-yl)pyridazin-3-yl)methanone]: 103% and 4080 nM.
The matching figures for `Cc1nn(C)cc1-c1cnc2c(c1)CN(c1nc(Cl)nc3c1COC3)CC2` [compound 285, 2-chloro-4-(3-(1,3-dimethyl-1H-pyrazol-4-yl)-7,8-dihydro-1,6-naphthyridin-6(5H)-yl)-5,7-dihydrofuro[3,4-d]pyrimidine]: 30% and 1220 nM.
With `Cc1cc(C#N)c(-c2cccn2C)nc1N1CCc2ncc(C(F)(F)F)cc2C1` [Example 372, 5-methyl-2-(1-methyl-1H-pyrrol-2-yl)-6-(3-(trifluoromethyl)-7,8-dihydro-1,6-naphthyridin-6(5H)-yl)nicotinonitrile], the Emax at 30 µM is 55% and the concentration for a half-maximal effect (EC50) is 5800 nM.
Regarding `Cc1c(C#N)nnc(N2CCc3ncc(-c4ccc(N5CCN(C6CC6)CC5)nc4)cc3C2)c1C` [Example 335, 6-(3-(6-(4-cyclopropylpiperazin-1-yl)pyridin-3-yl)-7,8-dihydro-1,6-naphthyridin-6(5H)-yl)-4,5-dimethylpyridazine-3-carbonitrile], the maximal response (Emax) at 30 µM was determined as 41% and the EC50 was 386 nM.
Taken in the same sequence, the figures for `Cc1nc2c(c(N3CCc4ncc(C(F)(F)F)cc4C3)n1)CCCC2` [compound 268, 2-methyl-4-(3-(trifluoromethyl)-7,8-dihydro-1,6-naphthyridin-6(5H)-yl)-5,6,7,8-tetrahydroquinazoline] were 68% and 4190 nM.
Regarding `Cc1cnccc1Nc1cnc2c(c1)CN(c1nnc(C#N)cc1C)CC2` [Example 619, 5-methyl-6-(3-((3-methylpyridin-4-yl)amino)-7,8-dihydro-1,6-naphthyridin-6(5H)-yl)pyridazine-3-carbonitrile], the Emax at 30 µM amounted to 86% and the concentration for a half-maximal effect (EC50) is 1020 nM.
Taken in the same sequence, the figures for `Cc1cc(C#N)cnc1N1CCc2ncc(N3CCOC(C)(C)C3)cc2C1` [Example 370, 6-(3-(2,2-dimethylmorpholino)-7,8-dihydro-1,6-naphthyridin-6(5H)-yl)-5-methylnicotinonitrile] were 82% and 81 nM.
The matching figures for `Cc1cc(C(=O)N2CC(c3ccncc3)C2)nnc1N1CCc2ncc(N3CCCn4nccc43)cc2C1` [Example 517, (6-(3-(6,7-dihydropyrazolo[1,5-a]pyrimidin-4(5H)-yl)-7,8-dihydro-1,6-naphthyridin-6(5H)-yl)-5-methylpyridazin-3-yl)(3-(pyridin-4-yl)azetidin-1-yl)methanone]: 76% and 12 nM.
Taken in the same sequence, the figures for `Cc1c(C#N)nnc(N2CCc3ncc(N4CCOC(c5cccnc5)C4)cc3C2)c1C` (stereo not drawn) [Example 388, 4,5-dimethyl-6-(3-(2-(pyridin-3-yl)morpholino)-7,8-dihydro-1,6-naphthyridin-6(5H)-yl)pyridazine-3-carbonitrile] were 83% and 1250 nM.
`Cc1nc(NC2CC2)nc(N2CCc3ncc(Nc4ccnn4C)cc3C2)c1C` [compound 278, 6-(2-(cyclopropylamino)-5,6-dimethylpyrimidin-4-yl)-N-(1-methyl-1H-pyrazol-5-yl)-5,6,7,8-tetrahydro-1,6-naphthyridin-3-amine]: the Emax at 30 µM came out at 95% and the half-maximal effective concentration (EC50) is 178 nM.
Taken in the same sequence, the figures for `Cc1cc(C#N)cnc1N1CCc2ncc(C(F)(F)F)cc2C1` [compound 165, 5-methyl-6-[3-(trifluoromethyl)-7,8-dihydro-5H-1,6-naphthyridin-6-yl]pyridine-3-carbonitrile] were 111% and 145 nM.
Taken in the same sequence, the figures for `COc1ccc(Br)cc1CNC(=O)c1cnc(N2CCc3ncccc3C2)c(C)c1` [compound 141, N-[(5-bromo-2-methoxy-phenyl)methyl]-6-(7,8-dihydro-5H-1,6-naphthyridin-6-yl)-5-methyl-pyridine-3-carboxamide] were 56% and 1420 nM.
For the molecule `Cc1cnc2c(c1)CN(c1nnc(C#N)c(C)c1C)CC2` [compound 117, 4,5-dimethyl-6-(3-methyl-7,8-dihydro-5H-1,6-naphthyridin-6-yl)pyridazine-3-carbonitrile], the Emax turned out to be 55% and the concentration for a half-maximal effect (EC50) came to 3650 nM.
Regarding `Cc1c(C#N)nnc(N2CCc3ncc(Oc4cc(F)ccc4F)cc3C2)c1C` [Example 353, 6-(3-(2,5-difluorophenoxy)-7,8-dihydro-1,6-naphthyridin-6(5H)-yl)-4,5-dimethylpyridazine-3-carbonitrile], the maximal effect (Emax) at 30 µM was found to be 73% and the EC50 was 126 nM.
The matching figures for `Cc1cc(C#N)cnc1N1CCc2ncc(OCCOc3ccccc3)cc2C1` [Example 427, 5-methyl-6-(3-(2-phenoxyethoxy)-7,8-dihydro-1,6-naphthyridin-6(5H)-yl)nicotinonitrile]: 63% and 2670 nM.
Taken in the same sequence, the figures for `Cc1cc(C#N)cnc1N1CCc2ncc(Nc3ccc(F)cc3)cc2C1` [Example 2] were 85% and 457 nM.
On to `Cc1nc(Cl)c(C)c(N2CCc3ncc(N)cc3C2)n1` [compound 213, 6-(6-chloro-2,5-dimethylpyrimidin-4-yl)-5,6,7,8-tetrahydro-1,6-naphthyridin-3-amine], for which the Emax was determined as 94% and the half-maximal effective concentration (EC50) was determined as 1890 nM.
With `Cc1cc(C#N)cnc1N1CCc2ncc(Cc3ccccc3F)cc2C1` [Example 365, 6-(3-(2-fluorobenzyl)-7,8-dihydro-1,6-naphthyridin-6(5H)-yl)-5-methylnicotinonitrile], the Emax at 30 µM came out at 89% and the EC50 turned out to be 358 nM.
The matching figures for `Cc1c(C#N)nnc(N2CCc3ncc(Nc4ccccc4Cl)cc3C2)c1C` [compound 39, 6-[3-(2-chloroanilino)-7,8-dihydro-5H-1,6-naphthyridin-6-yl]-4,5-dimethyl-pyridazine-3-carbonitrile]: 73% and 239 nM.
The matching figures for `COc1ccc(-c2cnc3c(c2)CN(c2ncc(C#N)cc2C)CC3)cn1` [compound 188, 6-[3-(6-methoxy-3-pyridyl)-7,8-dihydro-5H-1,6-naphthyridin-6-yl]-5-methyl-pyridine-3-carbonitrile]: 106% and 244 nM.
The matching figures for `Cc1cc(C(=O)NCc2ccnc3ccccc23)cnc1N1CCc2ncccc2C1` [compound 131, 6-(7,8-dihydro-5H-1,6-naphthyridin-6-yl)-5-methyl-N-(4-quinolylmethyl)pyridine-3-carboxamide]: 57% and 876 nM.
